# Laboratory results as given in patent US4089966A, “5-N-(3-Amino-2-hydroxy-propyl)-amino-1,2,4-oxadiazole derivatives, processes for their preparation and applications thereof” (Aron Sarl, priority 1975, dated 1978).
# Structures can show the parent of a compound that is named as a salt. Where two headings read alike, the source gives them in different places.
# How the values were obtained:
# [1] = system: aconitine-induced rhythm disorders; experiment: Preventive action on aconitine-induced rhythm disorders; type: in vivo, rats; details: Aconitine 50mg/l, 0.2ml/mn, ±SD, control 85±15
# Description: (§1) a. Two Examples are given to show the preventive action, by the intravenous route:
# 2. in rats, on aconitine-induced rhythm disorders.
# (§2) The various compounds of the above Table are administered just prior to
# (§3) perfusion of the arrhythmogenic materials (K-Strophantine,
# (§4) K-Strophantine-Adrenaline, Aconitine). The values represent the period of
# (§5) time ± SD (standard deviation) before the first signs of arrhythmia
# [2] = Chronic toxicity, oral, 3 months, young adult rats; type: in vivo, rats of Sprague Dawley (Charles River) strain; details: oral, 25, 75 and 150 mg/kg during 3 months
# Description: The compound of Example 1 was administered orally to young adult rats of Sprague Dawley (Charles River) strain, at dosages of 25, 75 and 150 mg/kg during 3 months.
# [3] = Acute toxicity (LD 50%, semi-logarithmic technique of Lichfield and Wilcoxon); type: in vivo; details: for LD50: in vivo
# Excerpt: Each value represents the LD 50% expressed as mg/kg, according to the semi-logarithmic technique disclosed by Lichfield and Wilcoxon.
# [4] = system: arrhythmia induced by Strophantine in combination with adrenaline; experiment: Preventive action on arrhythmia induced by perfusion of K-Strophantine in combination with adrenaline; type: in vivo, guinea-pits; details: K-Strophantine 0.I5mg/ml + Adrenaline 5μg/ml, ±SD, control 1.21±0.33
# Description: as §1
# (§6) 1. in guinea-pits, on arrhythmia induced by Strophantine alone or in combination with adrenaline;
# as §2, §3, §4, §5
# [5] = system: disorders of the cardiac rhythm in non-anesthetized dogs 24 hours after coronary ligation; experiment: Curative activity on disorders of the cardiac rhythm 24 hours after coronary ligation (method according to Harris); type: in vivo; details: for Percent sinus rhythm after administration of the compound: extreme values in parenthesis
# Excerpt: b. An Example is given to show the curative activity by the oral route.
# As is apparent from following Table IV, the effect is a function of the disage administered.
# [6] = system: surface anesthesia in rabbits; experiment: Surface anesthesia in rabbits compared to Butacaine; type: in vivo; details: Butacaine = 1
# [7] = system: disorders of the cardiac rhythm; experiment: Clinical tests, oral administration in patients suffering from disorders of the cardiac rhythm; type: in vivo; details: oral, 200, 400 and 600 mg
# [8] = system: arrhythmia induced by Strophantine alone; experiment: Preventive action on arrhythmia induced by perfusion of K-Strophantine alone; type: in vivo, guinea-pits; details: K-Strophantine 0.I5mg/ml, 0.5ml/mn, ±SD, control 2.45±0.22
# Description: as §1, §6, §2, §3, §4, §5
# [9] = system: BaCl2 -induced contraction of the duodenum; experiment: Antispasmodic activity compared to Papaverine (BaCl2-induced contraction of the duodenum); details: Papaverine = 1
# [10] = system: conduction anesthesia in guinea-pigs; experiment: Conduction anesthesia in guinea-pigs compared to Xylocaine; type: in vivo; details: Xylocaine = 1
# [11] = Chronic toxicity, intravenous, 1 month, young male adult mice; type: in vivo; details: 1 and 5 mg/kg during 1 month
# Description: The compound of Example 1 was also administered intravenously to young male adult mice, at dosages of 1 and 5 mg/kg during 1 month.
# [12] = intravenous route, read-out: LD50, intravenous route
# [13] = oral route, read-out: LD50, oral route
Compound,"LD50 [3, 12] [mg/kg]","LD50 [3, 13] [mg/kg]","Ratio between the activity of compound (I) and the activity of Butacaine for surface anesthesia, on administration of a same dosage [6]",Ratio between the dosage of Papaverine and the dosage of Compound (1) producing the same antispasmodic activity [9],"Ratio between the activity of compound (I) and the activity of Xylocaine for conduction anesthesia, on administration of a same dosage [10]",other results
"CCN(CC)CC(O)CN(C)c1nc(-c2ccccc2)no1 (stereo not drawn) [Example 1, 5-N-(3-diethylamino-2-hydroxy-propyl)-N-methylamino-3-phenyl-1,2,4-oxadiazole fumarate hydrate]",30,280,1.5,1.5,1,"period of time before the first signs of arrhythmia appear ([1]; 5 mg/kg intravenous): 141 ± 28 s; period of time before the first signs of arrhythmia appear ([1]; 10 mg/kg intravenous): 126 ± 23 s; change of weight of the organs on autopsy [2]: No change of weight of the organs was found; hematologic examination, biochemical blood tests and urinalysis [2]: No anomaly was detected; histological anomaly on anatomicopathological examination [2]: No histological anomaly, and particularly no liver, kidney or brain injury was found; period of time before the first signs of arrhythmia appear ([4]; 10 mg/kg intravenous): 1.62±0.42 decimal minutes; Percent sinus rhythm after administration of the compound ([5]; 10 mg/kg oral, 3 tests, prior to administration 5%(0-15%)): 25%(0-65%); Percent sinus rhythm after administration of the compound ([5]; 25 mg/kg oral, 8 tests, prior to administration 5.6% (0-18%)): 59%(5-100%); Percent sinus rhythm after administration of the compound ([5]; 50 mg/kg oral, 6 tests, prior to administration 7.6% (0-20%)): 71.6% (25-100%); curative activity on disorders of the cardiac rhythm after coronary ligation (in words) ([5]; non-anesthetized dogs, oral route): corrects the disorders of the cardiac rhythm; effects in patients suffering from disorders of the cardiac rhythm [7]: beneficial effects; Tolerance ([7]; patients): good; period of time before the first signs of arrhythmia appear ([8]; 5 mg/kg intravenous): 3.27±0.4 decimal minutes; period of time before the first signs of arrhythmia appear ([8]; 10 mg/kg intravenous): 3.18±0.33 decimal minutes; glycemia and serum transaminase level [11]: comparable in the treated animals and in the control animals; hematological examination [11]: No substantial modifications were found; histological anomaly on autopsy [11]: No histological anomaly was found on autopsy, particularly no cytologic injury of the liver, the kidneys, the pancreas, the heart or the brain; local tolerance of the injections [11]: well tolerated locally"
CCN(CC)CC(O)CNc1nc(-c2ccccc2)no1 (stereo not drawn) [Example 2],55,700,1,1,1.4,period of time before the first signs of arrhythmia appear ([1]; 10 mg/kg intravenous): 155 ± 32 s; period of time before the first signs of arrhythmia appear ([4]; 10 mg/kg intravenous): 2.73±0.5 decimal minutes; period of time before the first signs of arrhythmia appear ([8]; 10 mg/kg intravenous): 3.04±0.52 decimal minutes
"CCN(CC)CC(O)CNc1nc(-c2ccc(F)cc2)no1 (stereo not drawn) [Example 4, 5-(3-diethylamino-2-hydroxy-propyl)-amino-3-(4-fluorophenyl)-1,2,4-oxadiazole fumarate]",–,750,1.4,–,1.5,–
CCN(CC)CC(O)CN(CC)c1nc(-c2ccccc2)no1 (stereo not drawn) [Example 5],18,200,1.7,3,1.7,period of time before the first signs of arrhythmia appear ([1]; 5 mg/kg intravenous): 119 ± 15.5 s; period of time before the first signs of arrhythmia appear ([4]; 5 mg/kg intravenous): 1.60±0.35 decimal minutes; period of time before the first signs of arrhythmia appear ([8]; 5 mg/kg intravenous): 3.43±0.51 decimal minutes
"CCCN(CC(O)CN(CC)CC)c1nc(-c2ccccc2)no1 (stereo not drawn) [Example 7, 5-[N-(3-diethylamino-2-hydroxy-propyl)-N-propyl]amino-3-phenyl-1,2,4-oxadiazole fumarate hydrate]",–,250,–,–,–,period of time before the first signs of arrhythmia appear ([1]; 2.5 mg/kg intravenous): 185 ± 48 s; insoluble (entry in place of the intravenous LD50) ([3]; intravenous route): inso-; period of time before the first signs of arrhythmia appear ([4]; 2.5 mg/kg intravenous): 1.74±0.16 decimal minutes; period of time before the first signs of arrhythmia appear ([8]; 2.5 mg/kg intravenous): 2.85±0.1 decimal minutes
C=CCN(CC(O)CN(CC)CC)c1nc(-c2ccccc2)no1 (stereo not drawn) [Example 8],–,–,1.5,2.5,1,–
"CCCN(CCC)CC(O)CN(C)c1nc(-c2ccccc2)no1 (stereo not drawn) [Example 9, 5-N-(3-dipropylamino-2-hydroxy-propyl)-N-methylamino-3-phenyl-1,2,4-oxadiazole fumarate hydrate]",50,250,1.65,4,1.6,period of time before the first signs of arrhythmia appear ([4]; 2.5 mg/kg intravenous): 1.77±0.08 decimal minutes
CN1CCN(CC(O)CNc2nc(-c3ccccc3)no2)CC1 (stereo not drawn) [Example 10],–,750,–,–,–,insoluble (entry in place of the intravenous LD50) ([3]; intravenous route): inso-
CCN(CC)CC(O)CN(C)c1nc(-c2ccncc2)no1 (stereo not drawn) [Example 11],100,750,1.5,0.2,1,period of time before the first signs of arrhythmia appear ([1]; 20 mg/kg intravenous): 129 ± 21 s; period of time before the first signs of arrhythmia appear ([4]; 10 mg/kg intravenous): 1.3±0.3 decimal minutes
CCNCC(O)CN(CC)c1nc(-c2ccccc2)no1 (stereo not drawn) [Example 12],–,–,1,0.8,1.65,–
"COc1ccc(Cc2nccc3cc(OC)c(OC)cc23)cc1OC [Papaverine, reference compound]",–,–,–,1,–,–
